In patent US20100216823A1 (Pfizer Inc., priority 2007, published 2010):

Tests used:
Assay type in all cases: biochemical
PDE7B = molecular target: T1, PDE7B (Homo sapiens, UniProt Q9NP56); test: PDE7B [3H]-cAMP scintillation proximity assay (SPA) enzyme inhibition; details: for Ki: full length PDE7B in cell lysate, ~25 nM cAMP, Ki from IC50 by Cheng-Prussof equation; for 1C/7B selectivity: ratio PDE1C Ki / PDE7B Ki
T1 construct: cell lysate containing full length PDE7A, PDE7B and PDE1C enzyme; made in house; host or cells: cell lysate
Protocol: (§1) The ability of the compounds of formula (I) to inhibit PDE7 and PDE1 may be measured using the following assay protocol.
(§2) PDE7A, PDE7B and PDE1C enzymes catalyse the hydrolysis of 3′,5′-cyclic adenosine monophosphate (cAMP) to the 5′ adenosine monophosphate, 5′AMP. In a multiwell plate, PDE enzyme, [^3H]-cAMP and the test compounds, are incubated at room temperature. The incubation is terminated by addition of commercially available yttrium silicate scintillation proximity assay (SPA) beads containing zinc sulphate. The yttrium silicate beads preferentially bind linear nucleotides, thus the product of the enzyme reaction, [^3H]-5′AMP binds to the bead to produce a light signal, which is detected by a scintillation counter. The amount of signal produced directly correlates with the amount of product formed, and thus the activity of the enzyme. The maximum signal is obtained where enzyme and substrate are incubated alone. The background signal is measured from wells either containing no enzyme, or from wells containing a supra-maximal concentration of a known PDE 7A/7B/1C inhibitor. Each purified batch of enzyme is quality controlled and its Km, Vmax and specific activity determined from kinetic studies before use in compound inhibition studies. The inhibition of the enzyme, by a test compound, is calculated relative to the maximum and background responses.
(§3) The compound of Example 75 of WO 02/074754, 5′-carboxypropoxy-8′-chloro-spiro[cyclohexane-1-4′-(3′,4′-dihydro)quinazolin]-2′(1′H)-one (referred to as compound A hereafter) was used as a standard for PDE7A and PDE7B. The compound of Example 32 of WO 02/074754, 4-(8′-chloro-2′-oxo-2′,3′-dihydro-1′H-spiro[cyclohexane-1,4′-quinazolin]-6′-yl)benzoic acid (referred to as compound B hereafter) was used as a standard for PDE1C.
(§4) The optimisation of this assay has been carried out using cell lysate containing full length PDE7A, PDE7B and PDE1C enzyme. The concentration of the enzyme in this cell lysate sample is unknown, so the specific activity of the cell lysate is used as a measure to ensure that the same activity per well is used despite any batch-to-batch variation of concentration/activity.
(§5) PDE7A/7B/1C stock enzyme was prepared and kept at −20° C. in appropriately sized aliquots to reduce the number of freeze/thaw cycles. […] PDE7A is diluted to 1/8000, PDE7B to 1/10000 and PDE1C to 1/200000.
(§6) The final assay [cAMP] of ˜25 nM is required, so ˜50 nM [^3H]-cAMP was prepared. 9 ml of substrate solution was prepared by mixing 10.8 μl of [^3H]-cAMP (available from Amersham) with 8975 μl of assay buffer.
(§7) 1 μl test compound was transferred into a suitable multi-well assay plate immediately prior to reagent assay addition, 14 μl enzyme solution was then added to the assay plate, followed by 15 μl substrate solution (ie: final assay volume 30 μl, with a final screening compound concentration of 1 μM for PDE7A and PDE7B and 10 μM for PDE1C). The plate was then sealed using a plate sealer and incubated at room temperature for 45 min on the plate shaker.
(§8) 30 μl Yttrium Silicate PDE4 SPA beads were then added, ensuring constant stirring of the beads to give even distribution in the assay plate. The plate was then sealed using a plate sealer and incubated at room temperature for 30 mins on the plate shaker. The beads were then allowed to settle for 30 mins, before spinning the plates for 1 min at 200 g.
(§9) The plates were then read on a suitable radioactive counter, for example NXT-TopCount™ (available from Perkin Elmer) using the relevant protocol (30 second read time per well).
(§10) The data was fitted to a sigmoid curve using a least squares algorithm.
(§11) The IC50 value was converted to a value using the Cheng-Prussof equation: […]

PDE7A = molecular target: T2, PDE7A (Homo sapiens, UniProt Q13946); test: PDE7A [3H]-cAMP scintillation proximity assay (SPA) enzyme inhibition; details: for Ki: full length PDE7A in cell lysate, ~25 nM cAMP, Ki from IC50 by Cheng-Prussof equation; for 1C/7A selectivity: ratio PDE1C Ki / PDE7A Ki
T2 construct: cell lysate containing full length PDE7A, PDE7B and PDE1C enzyme; made in house; host or cells: cell lysate
Protocol: as §1, §2, §3, §4, §5, §6, §7, §8, §9, §10, §11

PDE1C = molecular target: T3, PDE1C (Homo sapiens, UniProt Q14123); test: PDE1C [3H]-cAMP scintillation proximity assay (SPA) enzyme inhibition; details: full length PDE1C in cell lysate; 75 nM cAMP; Ki from IC50 by Cheng-Prussof equation
T3 construct: cell lysate containing full length PDE7A, PDE7B and PDE1C enzyme; made in house; host or cells: cell lysate
Protocol: as §1, §2, §3, §4, §5
The final assay [cAMP]=75 nM therefore the required solution [cAMP]=0.15 μM (1/2 dilution in assay plate)
as §7, §8, §9, §10, §11

T2 sequence (Q13946 whole entry): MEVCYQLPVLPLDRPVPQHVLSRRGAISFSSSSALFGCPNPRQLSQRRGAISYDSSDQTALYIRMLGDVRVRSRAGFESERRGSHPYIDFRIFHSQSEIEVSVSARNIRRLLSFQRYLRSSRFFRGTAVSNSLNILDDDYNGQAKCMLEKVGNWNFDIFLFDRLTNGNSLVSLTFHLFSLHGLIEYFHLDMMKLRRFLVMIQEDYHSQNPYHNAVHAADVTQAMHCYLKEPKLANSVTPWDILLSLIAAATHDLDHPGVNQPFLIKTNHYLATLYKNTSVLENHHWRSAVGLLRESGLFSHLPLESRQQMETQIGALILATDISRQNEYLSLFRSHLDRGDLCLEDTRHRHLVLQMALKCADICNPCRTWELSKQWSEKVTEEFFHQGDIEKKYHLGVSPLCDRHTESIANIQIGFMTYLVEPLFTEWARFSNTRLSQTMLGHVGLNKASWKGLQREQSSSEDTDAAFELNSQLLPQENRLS
T3 sequence (Q14123 whole entry): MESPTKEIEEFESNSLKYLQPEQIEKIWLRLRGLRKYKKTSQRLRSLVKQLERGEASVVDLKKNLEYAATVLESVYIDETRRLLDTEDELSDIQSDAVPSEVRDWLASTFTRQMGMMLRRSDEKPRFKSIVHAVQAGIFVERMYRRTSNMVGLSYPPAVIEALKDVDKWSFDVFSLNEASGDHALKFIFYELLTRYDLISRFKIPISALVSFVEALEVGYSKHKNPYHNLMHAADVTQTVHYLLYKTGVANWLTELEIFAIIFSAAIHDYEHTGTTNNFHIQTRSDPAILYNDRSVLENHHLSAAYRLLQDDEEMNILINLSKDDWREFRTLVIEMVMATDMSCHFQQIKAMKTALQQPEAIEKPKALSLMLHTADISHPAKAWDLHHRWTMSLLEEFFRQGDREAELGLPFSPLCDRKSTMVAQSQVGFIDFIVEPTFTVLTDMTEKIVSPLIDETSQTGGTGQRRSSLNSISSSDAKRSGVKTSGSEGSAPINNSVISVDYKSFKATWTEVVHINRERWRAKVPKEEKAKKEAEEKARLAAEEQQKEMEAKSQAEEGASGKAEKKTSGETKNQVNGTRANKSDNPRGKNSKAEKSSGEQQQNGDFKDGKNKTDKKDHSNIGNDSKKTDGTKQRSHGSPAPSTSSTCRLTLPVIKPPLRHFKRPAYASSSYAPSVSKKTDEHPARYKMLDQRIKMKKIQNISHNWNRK
T1 sequence (Q9NP56 whole entry): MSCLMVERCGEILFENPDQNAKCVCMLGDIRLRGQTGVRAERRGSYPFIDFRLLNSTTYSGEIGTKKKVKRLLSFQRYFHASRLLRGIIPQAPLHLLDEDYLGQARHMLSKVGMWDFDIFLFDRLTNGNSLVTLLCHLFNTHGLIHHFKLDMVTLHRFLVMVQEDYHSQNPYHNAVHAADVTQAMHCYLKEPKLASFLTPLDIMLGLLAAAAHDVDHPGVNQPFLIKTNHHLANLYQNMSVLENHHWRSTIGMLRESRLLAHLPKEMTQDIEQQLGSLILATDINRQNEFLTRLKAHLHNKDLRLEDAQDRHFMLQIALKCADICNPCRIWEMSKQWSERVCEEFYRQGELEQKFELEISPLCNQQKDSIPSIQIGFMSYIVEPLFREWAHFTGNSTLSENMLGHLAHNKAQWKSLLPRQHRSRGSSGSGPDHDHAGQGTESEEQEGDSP

| Compound | Ki (PDE7B) [nM] | 1C/7B selectivity (PDE7B) | Ki (PDE7A) [nM] | 1C/7A selectivity (PDE7A) | Ki (PDE1C) [nM] |
| --- | --- | --- | --- | --- | --- |
| O=C1Nc2c(Cl)ccc(OCc3ccc(C(=O)O)o3)c2C2(CCCCC2)N1 [Compound C, 5-{[(8′-chloro-2′-oxo-2′,3′-dihydro-1′H-spiro[cyclohexane-1,4′-quinazolin]-5′-yl)oxy]methyl}-2-furoic acid, reference compound] | 33 | 9.2 | 6.7 | 45 | 305 |
| O=C1Nc2c(Cl)ccc(-c3ccc(F)c(-c4nn[nH]n4)c3)c2C2(CCCCC2)N1 [Example 4] | 45 | 35 | 7.5 | 207 | 1560 |
| O=C(O)COc1cccc(-c2ccc(Cl)c3c2C2(CCCCC2)NC(=O)N3)c1 [Example 5, [3-(8′-chloro-2′-oxo-2′,3′-dihydro-1′H-spiro[cyclohexane-1,4′-quinazolin]-5′-yl)phenoxy]acetic acid] | 51 | >113 | 4.5 | >1260 | > 5730 |
| O=C1Nc2c(Cl)ccc(Oc3c(F)cccc3C(=O)O)c2C2(CCCC2)N1 [Example 7, 2-{(8′-chloro-2′-oxo-2′,3′-dihydro-1′H-spiro[cyclopentane-1,4′-quinazolin]-5′-oxy}-3-fluorobenzoic acid] | 21 | 107 | 11 | 201 | 2260 |
| O=C1Nc2c(Cl)ccc(Oc3c(Cl)cccc3C(=O)O)c2C2(CCCCC2)N1 [Example 8, 3-chloro-2-{(8′-chloro-2′-oxo-2′,3′-dihydro-1′H-spiro[cyclohexane-1,4′-quinazolin]-5′-yl)oxy}benzoic acid] | 9.4 | 192 | 4.8 | 380 | 1810 |
| O=C1Nc2c(Cl)ccc(Oc3c(F)cccc3-c3nn[nH]n3)c2C2(CCCCC2)N1 [Example 10, 8′-chloro-5′-[2-fluoro-6-(2H-tetrazol-5-yl)phenoxy]-1′H-spiro[cyclohexane-1,4′-quinazolin]-2′(3′H)-one] | 0.4 | 186 | 0.1 | 743 | 73 |
| O=C1Nc2c(Cl)ccc(Oc3ccc(F)cc3-c3nnn[nH]3)c2C2(CCCC2)N1 [Example 13, 8′-chloro-5′-[4-fluoro-2-(1H-tetrazol-5-yl)phenoxy]-1′H-spiro[cyclopentane-1,4′-quinazolin]-2′(3′H)-one] | 7.2 | 119 | 1.7 | 523 | 862 |
| O=C(O)Cc1cccc(F)c1Oc1ccc(Cl)c2c1C1(CCCCC1)NC(=O)N2 [Example 22, {2-[(8′-chloro-2′-oxo-2′,3′-dihydro-1′H-spiro[cyclohexane-1,4′-quinazolin]-5′-yl)oxy]-3-fluorophenyl}acetic acid] | – | – | < 0.05 | >282 | – |

The next lines start with the values.

| Ki (PDE7B) [nM] | 1C/7B selectivity (PDE7B) | Ki (PDE7A) [nM] | 1C/7A selectivity (PDE7A) | Ki (PDE1C) [nM] | Compound |
| --- | --- | --- | --- | --- | --- |
| 39 | 0.04 | 1.5 | 0.97 | 1.4 | O=C1Nc2c(Cl)cc(-c3ccc(C(=O)O)cc3)cc2C2(CCCCC2)N1 [Compound B, 4-(8′-chloro-2′-oxo-2′,3′-dihydro-1′H-spiro[cyclohexane-1,4′-quinazolin]-6′-yl)benzoic acid, reference compound] |
| 32 | >175 | 3.2 | >1750 | > 5600 | O=C1Nc2c(Cl)ccc(-c3ccc(F)c(C(=O)O)c3)c2C2(CCCCC2)N1 [Example 1, 5-[(8′-chloro-2′-oxo-2′,3′-dihydro-1′H-spiro[cyclohexane-1,4′-quinazolin]-5′-yl)]-2-fluorobenzoic acid] |
| 12 | >477 | 3.1 | >1810 | > 5630 | O=C1Nc2c(Cl)ccc(-c3cccc(C(=O)O)c3)c2C2(CCCCC2)N1 [Example 2] |
| 101 | 24 | 11 | 218 | 2430 | O=C1Nc2c(Cl)ccc(-c3ccc(C(=O)O)c(F)c3)c2C2(CCCCC2)N1 [Example 3, 5-[(8′-chloro-2′-oxo-2′,3′-dihydro-1′H-spiro[cyclohexane-1,4′-quinazolin]-4′-yl)]-2-fluorobenzoic acid] |
| 3.4 | 172 | 1.7 | 336 | 584 | O=C1Nc2c(Cl)ccc(Oc3c(F)cccc3C(=O)O)c2C2(CCCCC2)N1 [Example 6, 2-{(8′-chloro-2′-oxo-2′,3′-dihydro-1′H-spiro[cyclohexane-1,4′-quinazolin]-5′-yl)oxy}-3-fluorobenzoic acid] |
| 41 | >92 | 32 | >116 | > 3750 | O=C1Nc2c(F)ccc(Oc3c(Cl)cccc3C(=O)O)c2C2(CCCCC2)N1 [Example 9, 3-chloro-2-{(8′-fluoro-2′-oxo-2′,3′-dihydro-1′H-spiro[cyclohexane-1,4′-quinazolin]-5′-yl)oxy}benzoic acid] |
| 1 | 70 | < 0.2 | >307 | 70 | O=C1Nc2c(Cl)ccc(Oc3ccc(F)cc3-c3nn[nH]n3)c2C2(CCCCC2)N1 [Example 11, 8′-chloro-5′-[4-fluoro-2-(1H-tetrazol-5-yl)phenoxy]-1′H-spiro[cyclohexane-1,4′-quinazolin]-2′(3′H)-one] |
| 0.7 | 123 | 0.3 | 301 | 89 | O=C1Nc2c(F)ccc(Oc3c(F)cccc3-c3nn[nH]n3)c2C2(CCCCC2)N1 [Example 12] |
| 4.4 | 165 | 2.4 | 301 | 723 | O=C1Nc2c(Cl)ccc(Oc3c(F)cccc3-c3nn[nH]n3)c2C2(CCCC2)N1 [Example 14, 8′-chloro-5′-[6-fluoro-2-(1H-tetrazol-5-yl)phenoxy]-1′H-spiro[cyclopentane-1,4′-quinazolin]-2′(3′H)-one] |
| 6.6 | 164 | 5 | 217 | 1080 | O=C1Nc2c(Cl)ccc(Oc3c(Cl)cccc3-c3nn[nH]n3)c2C2(CCCC2)N1 [Example 15, 8′-chloro-5′-[6-chloro-2-(1H-tetrazol-5-yl)phenoxy]-1′H-spiro[cyclopentane-1,4′-quinazolin]-2′(3′H)-one] |
| 9.8 | 79 | 2.3 | 345 | 778 | O=C1Nc2c(Cl)ccc(Oc3ccccc3-c3nn[nH]n3)c2C2(CCCC2)N1 [Example 16, 8′-chloro-5′-[2-(1H-tetrazol-5-yl)phenoxy]-1′H-spiro[cyclopentane-1,4′-quinazolin]-2′(3′H)-one] |
